{"source": "patent US7304075B2", "about": "“Stabilized liquid preparation” (Daiichi Pharmaceutical Co., Ltd., priority 2001, dated 2007)", "format_in_all_cases": "physicochemical", "key": {"[1]": {"test": "Light stability of aqueous sitafloxacin solution (white fluorescent tube irradiation)", "settings": "1 mg/ml aqueous solution; for Transmission (%): T % at 430 nm", "experimental": "To 160 ml of WFI were added 213.2 mg of sitafloxacin (active ingredient: 200 mg) and a varied amount of sodium chloride (0 mg for control, 20 mg, 100 mg, 200 mg, 1 g, 2 g, 4 g, 6 g or 10 g) or, for comparison, 10 g of D-sorbitol. Further, 5 ml of 0.1 mol/l aqueous hydrochloric acid was slowly added, followed by stirring for 30 mintues to dissolve sitafloxacin and sodium chloride. The nine kinds of solution each was adjusted to pH 4.0 by addition of 0.1 mol/l aqueous sodium hydroxide, and WFI was added to make 200 ml. Ten milliliter portions of the resulting aqueous solution were put into colorless ampules.\n• (1) pH: Measured with a pH meter (F-16, supplied by Horiba, Ltd.). • (2) Osmotic pressure: Measured with an osmometer (3C2, supplied by Advanced Instrument, Inc.). • (3) (Light) Transmission: A transmission at 430 nm was measured with a Beckman DU-640 spectrophotometer. • (4) Retention: The content of sitafloxacin of the irradiated samples was determined as follows to calculate retention (%).\nA test solution was prepared by accurately measuring 2 ml of a sample, adding an accurately measured equal amount of an internal standard solution, adding a mobile phase to make 20 ml, and mixing a 5 ml aliquot of the resulting solution with the mobile phase to make 20 ml.\nA standard sitafloxacin solution was prepared by dissolving sitafloxacin for quantitative analysis (whose water content had been measured previously) precisely weighing about 0.1 g in the mobile phase to make a solution accurately measuring 100 ml, adding to an accurate 5 ml aliquot of the solution an accurately measured equal amount of the internal standard solution, adding the mobile phase to make 100 ml, and after thoroughly stirring, filtering the solution through a membrane filter. The test solution and the standard solution each measuring 10 μl were subjected to liquid chromatography under the following conditions. Ratios of the peak areas of sitafloxacin of the test solution or the standard solution to the peak area of the internal standard, QT and QS, were obtained, and the sitafloxacin content was determined according to the following equation. Sitafloxacin (C19H18ClF2N3O3) content (% to nominal amount)=amount (mg) of sitafloxacin for quantitative analysis (on dry basis)×(QT/QS)×(¼)×( 1/25)×100 wherein;\nA standard solution was prepared by weighing 0.100 g of sitafloxacin for quantitative analysis (whose water content had been measured previously), adding a mobile phase to accurately make 100 ml, and adding the mobile phase to an accurately measured aliquot (1 ml) of the solution to make 100 ml.\nA 10 μl aliquot of a sample and the standard solution was subjected to liquid chromatography under the following conditions, and the peak areas of the respective solutions were calculated by automatic integration to obtain the total content of sitafloxacin related substances.\nEach of the 1 mg/ml aqueous solutions of sitafloxacin was irradiated with light of a white fluorescent tube (2500 lux×5 days: 300,000 lux·hr), and the same measurements as described above were repeated."}, "[2]": {"test": "Water solubility of free sitafloxacin", "settings": "around a neutral pH"}, "[3]": {"test": "Light stability of aqueous sitafloxacin solution (white fluorescent tube irradiation)", "settings": "sodium chloride-containing aqueous solution adjusted to pH 4.0, versus aqueous solutions without sodium chloride"}, "[4]": {"settings": "Initial, 5% D-sorbitol in place of sodium chloride"}, "[5]": {"settings": "Irradiated (300,000 lux·hr), 5% D-sorbitol in place of sodium chloride"}, "[6]": {"settings": "Irradiated (300,000 lux·hr), NaCl 0%"}, "[7]": {"settings": "Irradiated (300,000 lux·hr), NaCl 0.01%"}, "[8]": {"settings": "Irradiated (300,000 lux·hr), NaCl 0.05%"}, "[9]": {"settings": "Irradiated (300,000 lux·hr), NaCl 0.10%"}, "[10]": {"settings": "Irradiated (300,000 lux·hr), NaCl 0.50%"}, "[11]": {"settings": "Irradiated (300,000 lux·hr), NaCl 1.0%"}, "[12]": {"settings": "Irradiated (300,000 lux·hr), NaCl 2.0%"}, "[13]": {"settings": "Irradiated (300,000 lux·hr), NaCl 3.0%"}, "[14]": {"settings": "Irradiated (300,000 lux·hr), NaCl 5.0%"}}, "data": [{"smiles": "N[C@@H]1CN(c2c(F)cc3c(=O)c(C(=O)O)cn([C@@H]4C[C@@H]4F)c3c2Cl)CC12CC2", "note": "[sitafloxacin, (−)-7-[(7S)-7-amino-5-azaspiro[2.4]heptan-5-yl]-8-chloro-6-fluoro-1-[(1R,2S)-2-fluoro-1-cyclopropyl]-1,4-dihydro-4-oxo-3-quinolinecarboxylic acid]", "values": [{"measurement": "Total Related substances (%)", "setting": "[1]; [4]", "value": 0.30, "unit": "%"}, {"measurement": "pH", "setting": "[1]; [4]", "value": 4.3}, {"measurement": "Transmission (%)", "setting": "[1]; [4]", "value": 77.2, "unit": "%"}, {"measurement": "Total Related substances (%)", "setting": "[1]; Initial, NaCl 0%", "value": 0.31, "unit": "%"}, {"measurement": "pH", "setting": "[1]; Initial, NaCl 0%", "value": 4.2}, {"measurement": "Transmission (%)", "setting": "[1]; Initial, NaCl 0%", "value": 77.6, "unit": "%"}, {"measurement": "Total Related substances (%)", "setting": "[1]; Initial, NaCl 0.01%", "value": 0.30, "unit": "%"}, {"measurement": "pH", "setting": "[1]; Initial, NaCl 0.01%", "value": 4.4}, {"measurement": "Transmission (%)", "setting": "[1]; Initial, NaCl 0.01%", "value": 77.1, "unit": "%"}, {"measurement": "Total Related substances (%)", "setting": "[1]; Initial, NaCl 0.05%", "value": 0.29, "unit": "%"}, {"measurement": "pH", "setting": "[1]; Initial, NaCl 0.05%", "value": 4.3}, {"measurement": "Transmission (%)", "setting": "[1]; Initial, NaCl 0.05%", "value": 76.8, "unit": "%"}, {"measurement": "Total Related substances (%)", "setting": "[1]; Initial, NaCl 0.10%", "value": 0.26, "unit": "%"}, {"measurement": "pH", "setting": "[1]; Initial, NaCl 0.10%", "value": 4.3}, {"measurement": "Transmission (%)", "setting": "[1]; Initial, NaCl 0.10%", "value": 76.7, "unit": "%"}, {"measurement": "Total Related substances (%)", "setting": "[1]; Initial, NaCl 0.50%", "value": 0.28, "unit": "%"}, {"measurement": "pH", "setting": "[1]; Initial, NaCl 0.50%", "value": 4.2}, {"measurement": "Transmission (%)", "setting": "[1]; Initial, NaCl 0.50%", "value": 75.6, "unit": "%"}, {"measurement": "Total Related substances (%)", "setting": "[1]; Initial, NaCl 1.0%", "value": 0.30, "unit": "%"}, {"measurement": "pH", "setting": "[1]; Initial, NaCl 1.0%", "value": 4.3}, {"measurement": "Transmission (%)", "setting": "[1]; Initial, NaCl 1.0%", "value": 74.7, "unit": "%"}, {"measurement": "Total Related substances (%)", "setting": "[1]; Initial, NaCl 2.0%", "value": 0.31, "unit": "%"}, {"measurement": "pH", "setting": "[1]; Initial, NaCl 2.0%", "value": 4.3}, {"measurement": "Transmission (%)", "setting": "[1]; Initial, NaCl 2.0%", "value": 73.1, "unit": "%"}, {"measurement": "Total Related substances (%)", "setting": "[1]; Initial, NaCl 3.0%", "value": 0.30, "unit": "%"}, {"measurement": "pH", "setting": "[1]; Initial, NaCl 3.0%", "value": 4.3}, {"measurement": "Transmission (%)", "setting": "[1]; Initial, NaCl 3.0%", "value": 72.8, "unit": "%"}, {"measurement": "Total Related substances (%)", "setting": "[1]; Initial, NaCl 5.0%", "value": 0.30, "unit": "%"}, {"measurement": "pH", "setting": "[1]; Initial, NaCl 5.0%", "value": 4.3}, {"measurement": "Transmission (%)", "setting": "[1]; Initial, NaCl 5.0%", "value": 70.7, "unit": "%"}, {"measurement": "Retention (per Initial %)", "setting": "[1]; [5]", "value": 86.6, "unit": "%"}, {"measurement": "Total Related substances (%)", "setting": "[1]; [5]", "value": 5.90, "unit": "%"}, {"measurement": "pH", "setting": "[1]; [5]", "value": 3.5}, {"measurement": "Transmission (%)", "setting": "[1]; [5]", "value": 56.8, "unit": "%"}, {"measurement": "Retention (per Initial %)", "setting": "[1]; [6]", "value": 84.2, "unit": "%"}, {"measurement": "Total Related substances (%)", "setting": "[1]; [6]", "value": 5.90, "unit": "%"}, {"measurement": "pH", "setting": "[1]; [6]", "value": 3.4}, {"measurement": "Transmission (%)", "setting": "[1]; [6]", "value": 47.1, "unit": "%"}, {"measurement": "Retention (per Initial %)", "setting": "[1]; [7]", "value": 87.9, "unit": "%"}, {"measurement": "Total Related substances (%)", "setting": "[1]; [7]", "value": 5.21, "unit": "%"}, {"measurement": "pH", "setting": "[1]; [7]", "value": 3.7}, {"measurement": "Transmission (%)", "setting": "[1]; [7]", "value": 52.8, "unit": "%"}, {"measurement": "Retention (per Initial %)", "setting": "[1]; [8]", "value": 91.7, "unit": "%"}, {"measurement": "Total Related substances (%)", "setting": "[1]; [8]", "value": 3.84, "unit": "%"}, {"measurement": "pH", "setting": "[1]; [8]", "value": 3.8}, {"measurement": "Transmission (%)", "setting": "[1]; [8]", "value": 61.0, "unit": "%"}, {"measurement": "Retention (per Initial %)", "setting": "[1]; [9]", "value": 93.5, "unit": "%"}, {"measurement": "Total Related substances (%)", "setting": "[1]; [9]", "value": 3.02, "unit": "%"}, {"measurement": "pH", "setting": "[1]; [9]", "value": 3.8}, {"measurement": "Transmission (%)", "setting": "[1]; [9]", "value": 64.4, "unit": "%"}, {"measurement": "Retention (per Initial %)", "setting": "[1]; [10]", "value": 94.2, "unit": "%"}, {"measurement": "Total Related substances (%)", "setting": "[1]; [10]", "value": 2.48, "unit": "%"}, {"measurement": "pH", "setting": "[1]; [10]", "value": 3.9}, {"measurement": "Transmission (%)", "setting": "[1]; [10]", "value": 63.6, "unit": "%"}, {"measurement": "Retention (per Initial %)", "setting": "[1]; [11]", "value": 94.7, "unit": "%"}, {"measurement": "Total Related substances (%)", "setting": "[1]; [11]", "value": 2.02, "unit": "%"}, {"measurement": "pH", "setting": "[1]; [11]", "value": 3.9}, {"measurement": "Transmission (%)", "setting": "[1]; [11]", "value": 62.6, "unit": "%"}, {"measurement": "Retention (per Initial %)", "setting": "[1]; [12]", "value": 94.0, "unit": "%"}, {"measurement": "Total Related substances (%)", "setting": "[1]; [12]", "value": 2.30, "unit": "%"}, {"measurement": "pH", "setting": "[1]; [12]", "value": 3.8}, {"measurement": "Transmission (%)", "setting": "[1]; [12]", "value": 60.7, "unit": "%"}, {"measurement": "Retention (per Initial %)", "setting": "[1]; [13]", "value": 95.5, "unit": "%"}, {"measurement": "Total Related substances (%)", "setting": "[1]; [13]", "value": 2.01, "unit": "%"}, {"measurement": "pH", "setting": "[1]; [13]", "value": 3.9}, {"measurement": "Transmission (%)", "setting": "[1]; [13]", "value": 61.0, "unit": "%"}, {"measurement": "Retention (per Initial %)", "setting": "[1]; [14]", "value": 94.8, "unit": "%"}, {"measurement": "Total Related substances (%)", "setting": "[1]; [14]", "value": 2.28, "unit": "%"}, {"measurement": "pH", "setting": "[1]; [14]", "value": 3.9}, {"measurement": "Transmission (%)", "setting": "[1]; [14]", "value": 57.6, "unit": "%"}, {"measurement": "water solubility", "setting": "[2]", "value": "poor"}, {"measurement": "formation of related substances due to irradiation or the reduction in pH", "setting": "[3]", "value": "more suppressed"}]}]}
